These results are taken from patent US20260317314A1, “NITROGEN-CONTAINING HETEROCYCLIC COMPOUND AND USE THEREOF” (JIANGSU DEYUAN PHARMACEUTICAL CO.,LTD., priority 2023, published 2026).

Data set [1] is described as follows: In vivo pharmacokinetic study in cynomolgus monkeys. More on the design: species or system cynomolgus monkey. As to conditions: male cynomolgus monkeys.
Data set [2] relates to plasma protein. The data set can be described thus: Plasma protein binding rate test, human (equilibrium dialysis). It is filed as in vitro ADME. The settings on record: 37° C., 4 hours. From the text:
(§1) The sample was thoroughly mixed.
In general terms: In equilibrium dialysis only unbound substance equilibrates across the membrane.

The nature of data set [3]: In vivo pharmacokinetics study in rats. Details: species or system SD rat. The settings on record: male SD rats, oral 2 mg/kg.
Data set [4] has as its system plasma protein. The data set can be described thus: Plasma protein binding rate test, cynomolgus monkey (equilibrium dialysis). As to conditions: 37° C., 4 hours. It is filed as in vitro ADME.
From the text: as §1

Data set [5] concerns plasma protein. The data set can be described thus: Plasma protein binding rate test, SD rat (equilibrium dialysis). In kind it is in vitro ADME. The settings on record: 37° C., 4 hours.
From the text: as §1

The nature of data set [6]: In vitro liver microsome metabolic stability study. It is filed as in vitro ADME. The settings on record: human liver microsomes 0.5 mg/mL, compound 1 μM, 37° C., up to 60 minutes. Here is the method: Stock solution: 10 mM in DMSO.
Only 54 μL of microsomal working solution, 6 μL of NADPH regeneration system working solution, and 180 μL of stop solution were added to the blank plate.
LC-MS/MS analysis was performed.

Data set [7] is described as follows: Plasma protein binding rate test, SD rat (equilibrium dialysis). The settings on record: 37° C., read-out: Plasma protein binding rate (%) in SD rats (converted). In kind it is in vitro ADME.
From the text: as §1

A further data set has as its system MDR1-MDCKII cells. The data set can be described thus: Permeability test in MDR1-MDCKII monolayer cell model. The settings on record: 2 μM, pH 7.40, 2.5 hours, 37±1° C. In kind it is in vitro ADME. As to the method: Experimental objective: The permeability and efflux ratio of the compound of the present disclosure were determined using the MDR1-MDCKII monolayer cell model to assess its membrane permeability and potential for P-gp-mediated efflux transport.
Experimental protocol: MDR1-MDCKII cells (obtained from the Netherlands Cancer Institute) were seeded in 96-well plates (obtained from Corning) at a cell density of 3.33×10^5 cells/mL and cultured for 4 to 7 days to form confluent cell monolayers. Hank's balanced salt solution containing 10 mM HEPES (pH 7.40) was used as the transport buffer. The test compound was evaluated for bidirectional transport at a concentration of 2 μM, with the DMSO concentration in the incubation system maintained below 1%. After adding the samples, the cell plate was incubated at 37±1° C., 5% CO2, and saturated humidity for 2.5 hours. All samples were quantitatively analyzed using the LC-MS/MS method. The apparent permeability coefficient (Papp, cm/s) and efflux ratio (ER) were calculated using the following formula. Apparent permeability coefficient (Papp, cm/s) was calculated using the following formula: Papp=(dCr/dt)×Vr/(A×C0). Herein, dCr/dt represents the cumulative concentration of the compound at the receiving end per unit time (μM/s); Vr is the volume of the solution at the receiving end (with solution volumes at the apical and basolateral ends being 0.075 mL and 0.250 mL, respectively); A is the relative surface area of the cell monolayer (0.143 cm^2); C0 is the initial concentration of the test substance at the dosing end (μM) or the peak area ratio of the reference substance. The efflux ratio was calculated using the following formula: ER=Papp(BA)/Papp(AB).

With `CCC(=O)N[C@@H]1CCCc2c(-c3cc4c(s3)N(C)C(=O)CC4)cncc21` (single isomer, unassigned) [Compound 017], the T1/2 in data set [1] (oral 1 mg/kg) is 5.30 h; in data set [3] it was 1.34 h. Further, the AUC0-24 h was determined as 7.292 µM·h in data set [1] (oral 1 mg/kg, plasma) and 8.129 µM·h in data set [3] (plasma). For the same compound, the “Human plasma protein binding rate (%)” value in the data set with plasma protein [2] stood at 82.7%. In addition, the “Plasma protein binding rate (%) in cynomolgus monkeys” value in the data set on plasma protein [4] amounted to 78.1%. Moreover, the “Plasma protein binding rate (%) in SD rats” value in the data set on plasma protein [5] came out at 94.9%.
As for `CCC(=O)N[C@@H]1CCCc2c(-c3cc(F)c4c(ccc(=O)n4C)c3)cncc21` (single isomer, unassigned) [Compound 018], the T1/2 in data set [1] (oral 1 mg/kg) worked out at 5.35 h. Moreover, in data set [1] (oral 1 mg/kg, plasma), the AUC0-24 h was determined as 7.586 µM·h. Besides, the “Human plasma protein binding rate (%)” value in the data set on plasma protein [2] worked out at 80.9%. Also, the “Intrinsic hepatic clearance CLint(liver)” value in data set [6] is recorded as below 8.6 mL/min/kg. The “Plasma protein binding rate (%) in cynomolgus monkeys” value in the data set with plasma protein [4] came to 79.5%. The fraction unbound at 4 h in data set [7] is 0.08. In the data set on MDR1-MDCKII cells, the “Apparent permeability coefficient (Papp (AB))” value is 24.6 10^-6 cm/s.
On to `CCC(=O)NC1CCCc2c(-c3cc4ccc(=O)n(C)c4cc3F)cncc21` (single isomer, unassigned) [Compound 019], for which, in data set [1] (oral 3 mg/kg), the F was determined as 113% and the T1/2 turned out to be 4.65 h. Besides, in data set [1] (oral 3 mg/kg, plasma), the AUC0-24 h was found to be 23.864 µM·h and the Cmax – broadly, the maximum level reached in the sampled fluid or tissue – turned out to be 3.79 µM. For the same compound, the “Human plasma protein binding rate (%)” value in the data set on plasma protein [2] amounted to 76.2%. Further, the “Plasma protein binding rate (%) in cynomolgus monkeys” value in the data set with plasma protein [4] was found to be 75.2%. The “Plasma protein binding rate (%) in SD rats” value in the data set on plasma protein [5] is given as 87.1%.
Regarding `CCC(=O)N[C@H]1CCOc2c(-c3ccc4c(ccc(=O)n4C)c3)cncc21` (single isomer, unassigned) [Compound 044], the “Human plasma protein binding rate (%)” value with plasma protein [2] amounted to 70.5%. In addition, in the data set on plasma protein [4], the “Plasma protein binding rate (%) in cynomolgus monkeys” value is recorded as 66.4%. For the same compound, the “Apparent permeability coefficient (Papp (AB))” value in the data set on MDR1-MDCKII cells is on record as 11.0 10^-6 cm/s.
